# Results from patent US11780840B2 (Incyte Corporation, priority 2020, dated 2023).
# pIC50: −log10 of the molar value.
# How the values were obtained:
# [1] = biological target: T1, pseudo-kinase domain (JH2, amino-acids 536-812 with 3 surface mutations W659A, W777A, F794H) of human Wild Type JAK2 (Homo sapiens, UniProt O60674, F794H/W659A/W777A); assay: JAK2 LanthaScreen JH2-WT Binding Assay; details: JAK2 JH2-WT (0.145 nM), 50 nM Fluorescent JAK2-JH2 Tracer, 1 hour at 25° C.; read-out: JH2 BIND WT
# T1 construct: pseudo-kinase domain (JH2, amino-acids 536-812 with 3 surface mutations W659A, W777A, F794H); His (C); Avi (biotinylated) (C); purchased BPS Bioscience 79463; host or cells: baculovirus expression system
# In short: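 Biotinylated His-Avi-tagged JAK2 JH2 (0.145 nM), baculovirus-expressed, incubated with compounds, 50 nM fluorescent JH2 tracer and 0.25 nM streptavidin-Tb, 1 h at 25° C in pH 7.5 Tris buffer with MgCl2 and DTT. Non-specific binding defined with 2 mM ATP. TR-FRET read; IC50 from four-parameter fit.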
# [2] = biological target: T2, catalytic domain (JH1, amino acids 826-1132) of human JAK2 (Homo sapiens, UniProt O60674); assay: JAK2 LanthaScreen JH1 Binding Assay; details: JAK2 JH1 (1.5 nM), 50 nM fluorescent JAK2-JH1 tracer, 2 hours at 25° C.; read-out: JH1 BIND
# T2 construct: catalytic domain (JH1, amino acids 826-1132) of human JAK2; FLAG (N); purchased Carna Biosciences 08-445-20N; host or cells: baculovirus expression system
# In short: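 TR-FRET tracer-displacement format: compound IC50 from four-parameter curves after 2 h at 25° C. Reaction held 1.5 nM biotinylated, FLAG-tagged JH1 (aa 826-1132), 50 nM tracer, 0.5 nM Streptavidin-Tb, pH 7.5 Tris buffer; 2 mM ATP set nonspecific background.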
# [3] = biological target: T3, pseudo-kinase domain (JH2, amino-acids 536-812 with 3 surface mutations W659A, W777A, F794H) of human V617F mutant JAK2 (Homo sapiens, UniProt O60674, F794H/V617F/W659A/W777A); assay: JAK2 LanthaScreen JH2-V617F Binding Assay; details: JAK2 JH2-V617F (0.26 nM), 50 nM Fluorescent JAK2-JH2 Tracer, 1 hour at 25° C.; read-out: JH2 BIND V617F
# T3 construct: pseudo-kinase domain (JH2, amino-acids 536-812 with 3 surface mutations W659A, W777A, F794H); His (C); Avi (biotinylated) (C); purchased BPS Bioscience 79498; host or cells: baculovirus expression system
# In short: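 This is a TR-FRET tracer-displacement format with a 1 h, 25 °C incubation. It combined 0.26 nM baculovirus-expressed biotinylated JH2-V617F, 50 nM fluorescent JAK2-JH2 tracer and 0.25 nM streptavidin-Tb cryptate in 50 mM Tris pH 7.5, 10 mM MgCl2, 5 mM DTT. Background came from 2 mM ATP, and IC50 values were from four-parameter dose-response fits.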
# T3 sequence (O60674 536-812 V617F/W659A/W777A/F794H): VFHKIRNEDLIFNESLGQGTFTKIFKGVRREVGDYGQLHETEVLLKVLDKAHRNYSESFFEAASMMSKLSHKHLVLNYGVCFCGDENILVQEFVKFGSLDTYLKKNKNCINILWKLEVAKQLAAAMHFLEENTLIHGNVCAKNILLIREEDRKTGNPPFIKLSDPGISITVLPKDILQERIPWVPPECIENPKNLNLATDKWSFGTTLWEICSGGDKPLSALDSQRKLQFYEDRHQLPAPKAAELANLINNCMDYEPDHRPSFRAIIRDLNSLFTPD
# T1 sequence (O60674 536-812 W659A/W777A/F794H): as the sequence (O60674 536-812 V617F/W659A/W777A/F794H) above, with F82V counted along it
# T2 sequence (O60674 826-1132): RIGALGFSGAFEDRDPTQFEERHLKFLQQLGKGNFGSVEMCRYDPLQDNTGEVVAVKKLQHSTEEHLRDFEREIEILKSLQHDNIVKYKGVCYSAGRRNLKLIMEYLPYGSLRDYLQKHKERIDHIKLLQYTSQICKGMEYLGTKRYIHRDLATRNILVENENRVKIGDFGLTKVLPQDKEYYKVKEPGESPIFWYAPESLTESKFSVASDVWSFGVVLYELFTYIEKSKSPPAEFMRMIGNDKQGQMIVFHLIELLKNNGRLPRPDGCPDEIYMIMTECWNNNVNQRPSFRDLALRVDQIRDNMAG
Compound,pIC50 [1],pIC50 [2],pIC50 [3]
"CC(C)n1c(=O)n(C)c2cnc3[nH]c(-c4cnn(C)c4)c(C#Cc4ccccc4)c3c21 [Example 100, 1-Isopropyl-3-methyl-7-(1-methyl-1H-pyrazol-4-yl)-8-(phenylethynyl)-3,6-dihydroimidazo[4,5-d]pyrrolo[2,3-b]pyridin-2(1H)-one]",6.30 to 7.00,6.00 to 6.30,6.30 to 7.00
"Cn1cc(-c2[nH]c3ncc4c(c3c2-c2ccc3c(cnn3C)c2)n([C@H]2C[C@@H](CC#N)C2)c(=O)n4C)cn1 [Example 101, 2-((1S,3S)-3-(3-Methyl-8-(1-methyl-1H-indazol-5-yl)-7-(1-methyl-1H-pyrazol-4-yl)-2-oxo-3,6-dihydroimidazo[4,5-d]pyrrolo[2,3-b]pyridin-1(2H)-yl)cyclobutyl)acetonitrile]",≥ 8.00,6.30 to 7.00,≥ 8.00
"Cn1cc(-c2[nH]c3ncc4c(c3c2-c2ccc3c(cnn3C)c2)n([C@H]2CC[C@@H](CC#N)CC2)c(=O)n4C)cn1 [Example 102, 2-((1S,4S)-4-(3-Methyl-8-(1-methyl-1H-indazol-5-yl)-7-(1-methyl-1H-pyrazol-4-yl)-2-oxo-3,6-dihydroimidazo[4,5-d]pyrrolo[2,3-b]pyridin-1(2H)-yl)cyclohexyl)acetonitrile]",≥ 8.00,7.00 to 8.00,≥ 8.00
"Cn1ncc2cc(-c3c(-c4cnn(CC(C)(C)O)c4)[nH]c4ncc5c(c34)n([C@H]3CC[C@@H](CC#N)CC3)c(=O)n5C)ccc21 [Example 103, 2-((1S,4S)-4-(7-(1-(2-Hydroxy-2-methylpropyl)-1H-pyrazol-4-yl)-3-methyl-8-(1-methyl-1H-indazol-5-yl)-2-oxo-3,6-dihydroimidazo[4,5-d]pyrrolo[2,3-b]pyridin-1(2H)-yl)cyclohexyl)acetonitrile]",≥ 8.00,6.30 to 7.00,≥ 8.00
"COC(=O)N[C@H]1C[C@@H](n2c(=O)n(C)c3cnc4[nH]c(-c5cnn(C)c5)c(-c5ccc6c(cnn6C)c5)c4c32)C1 [Example 104, Methyl ((1S,3S)-3-(3-methyl-8-(1-methyl-1H-indazol-5-yl)-7-(1-methyl-1H-pyrazol-4-yl)-2-oxo-3,6-dihydroimidazo[4,5-d]pyrrolo[2,3-b]pyridin-1(2H)-yl)cyclobutyl)carbamate]",≥ 8.00,6.00 to 6.30,≥ 8.00
"CCOC(=O)N[C@H]1C[C@@H](n2c(=O)n(C)c3cnc4[nH]c(-c5cnn(C)c5)c(-c5ccc(C#N)cc5)c4c32)C1 [Example 105, Ethyl ((1S,3S)-3-(8-(4-cyanophenyl)-3-methyl-7-(1-methyl-1H-pyrazol-4-yl)-2-oxo-3,6-dihydroimidazo[4,5-d]pyrrolo[2,3-b]pyridin-1(2H)-yl)cyclobutyl)carbamate]",≥ 8.00,< 6.00,≥ 8.00
"CCOC(=O)N[C@H]1C[C@@H](n2c(=O)n(C)c3cnc4[nH]c(-c5cnn(C)c5)c(-c5ccc(OC)cc5)c4c32)C1 [Example 106, Ethyl ((1S,3S)-3-(8-(4-methoxyphenyl)-3-methyl-7-(1-methyl-1H-pyrazol-4-yl)-2-oxo-3,6-dihydroimidazo[4,5-d]pyrrolo[2,3-b]pyridin-1(2H)-yl)cyclobutyl)carbamate]",≥ 8.00,< 6.00,≥ 8.00
"CC(C)n1c(=O)n(C)c2cnc3[nH]c(-c4cnn(C)c4)c(C4CCN(C(=O)Cc5ccc(S(C)(=O)=O)cc5)CC4)c3c21 [Example 107, 1-Isopropyl-3-methyl-7-(1-methyl-1H-pyrazol-4-yl)-8-(1-(2-(4-(methylsulfonyl)phenyl)acetyl)piperidin-4-yl)-3,6-dihydroimidazo[4,5-d]pyrrolo[2,3-b]pyridin-2(1H)-one]",7.00 to 8.00,6.30 to 7.00,7.00 to 8.00
"COc1nn(C)cc1-c1[nH]c2ncc3c(c2c1-c1ccc2c(cnn2C)c1)n([C@H]1CC[C@@H](CC#N)CC1)c(=O)n3C [Example 108, 2-((1S,4S)-4-(7-(3-methoxy-1-methyl-1H-pyrazol-4-yl)-3-methyl-8-(1-methyl-1H-indazol-5-yl)-2-oxo-3,6-dihydroimidazo[4,5-d]pyrrolo[2,3-b]pyridin-1(2H)-yl)cyclohexyl)acetonitrile]",≥ 8.00,< 6.00,≥ 8.00
"[2H]C([2H])([2H])n1ncc2cc(-c3c(-c4cn(C)nc4OC)[nH]c4ncc5c(c34)n(C3CCOCC3)c(=O)n5C)ccc21 [Example 109, 7-(3-Methoxy-1-methyl-1H-pyrazol-4-yl)-3-methyl-8-(1-(methyl-d3)-1H-indazol-5-yl)-1-(tetrahydro-2H-pyran-4-yl)-3,6-dihydroimidazo[4,5-d]pyrrolo[2,3-b]pyridin-2(1H)-one]",≥ 8.00,< 6.00,≥ 8.00
"[2H]C([2H])([2H])n1ncc2cc(-c3c(-c4cnn5cccnc45)[nH]c4ncc5c(c34)n(C3CCOCC3)c(=O)n5C)ccc21 [Example 110, 3-Methyl-8-(1-(methyl-d3)-1H-indazol-5-yl)-7-(pyrazolo[1,5-a]pyrimidin-3-yl)-1-(tetrahydro-2H-pyran-4-yl)-3,6-dihydroimidazo[4,5-d]pyrrolo[2,3-b]pyridin-2(1H)-one]",≥ 8.00,< 6.00,≥ 8.00
"Cn1cc(-c2[nH]c3ncc4c(c3c2-c2ccc3c(cnn3C)c2)n(C2CCN(C3(CC#N)CCC3)CC2)c(=O)n4C)cn1 [Example 111, 2-(1-(4-(3-Methyl-8-(1-methyl-1H-indazol-5-yl)-7-(1-methyl-1H-pyrazol-4-yl)-2-oxo-3,6-dihydroimidazo[4,5-d]pyrrolo[2,3-b]pyridin-1(2H)-yl)piperidin-1-yl)cyclobutyl)acetonitrile]",≥ 8.00,6.00 to 6.30,≥ 8.00
"Cn1cc(-c2[nH]c3ncc4c(c3c2-c2ccc(C#N)cc2)n(C2CCC3(CC2)CN(S(C)(=O)=O)C3)c(=O)n4C)cn1 [Example 112, 4-(3-Methyl-7-(1-methyl-1H-pyrazol-4-yl)-1-(2-(methylsulfonyl)-2-azaspiro[3.5]nonan-7-yl)-2-oxo-1,2,3,6-tetrahydroimidazo[4,5-d]pyrrolo[2,3-b]pyridin-8-yl)benzonitrile]",≥ 8.00,6.00 to 6.30,≥ 8.00
